Results: PubChem BioAssay AID179 (DTP/NCI, 2004)
Several values for one entry are separate records, joined by “and”; a condition that tells them apart may be missing. Equal values may be shown once. Activity calls are given as the source filed them.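 The calls were made as follows: active = compounds giving half or more protection of infected cells from virus-caused growth loss, again on retest; inactive = the rest.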 Where a SMILES comes first, the peptide text is derived from it. The star is where a group is joined. Cbz = O=C(OCc1ccccc1)*

Tested on: CEM cells HIV-1 protection, formazan growth assay
Test: NCI AIDS Antiviral Assay
Details: for IC50: measured here: growth of uninfected CEM cells
Summary of the method: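 Screen of anti-HIV-1 activity in human CEM cells using a formazan-based growth measurement at five drug concentrations. Hits with 50% or greater protection were repeated, and confirmation required reproducible complete protection.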

Row | SMILES | EC50 | IC50 | outcome
1 | N#Cc1c(-c2ccc(F)cc2)c(-c2ccc(F)cc2)nn(CCO)c1=O | > 141 µM | 1.48 µM | –
2 | O=C(Nc1ccc([N+](=O)[O-])cn1)Nc1ccccc1F | > 200 µM | > 200 µM | –
3 | CC(=O)OCC1OC(Nc2cc(=O)n(C)c(=O)[nH]2)C(OC(C)=O)C(OC(C)=O)C1OC(C)=O (stereo not given) | – | – | inactive
4 | Cc1ccccc1C(C#N)/C(=N/NC(=O)c1cc2ccccc2cc1O)C(=O)Nc1cccc(Cl)c1 (stereo not given) | > 191 µM | 4.9 µM | –
5 | CC1Oc2c3c(cc(O)c2C(=O)[C@@H]1C)OC(C)(C)CC3 (stereo not given in full) | > 200 µM | 50.1 µM | –
6 | COc1c2c(cc3oc(C)c(C)c(=O)c13)OC(C)(C)C=C2 | > 200 µM | 81.3 µM | –
7 | COC(=O)c1ccccc1CC(Cc1ccccc1)C(=O)OC (stereo not given) | – | – | inactive
8 | Cc1nnnn1[C@H]1C(C#N)CC2[C@@H]3CCC4=Cc5nnnn5CC[C@]4(C)C3CC[C@@]21C (stereo not given in full) | > 85.1 µM | > 85.1 µM | –
9 | Clc1ccc(Cc2nc3ccccc3s2)c(Cl)c1 | > 33.9 µM | 26.3 µM | –
10 | Cc1ccc(SCC(O)=C2C(=O)CCCC2=O)cc1 | > 245 µM | 158 µM | –
11 | C[C@H]1CC[C@@H]2[C@@H](C)C[C@H]3[C@@H]4C(C)(C)OC(=O)[C@]4(C)C(=O)[C@@]23C1=O | > 200 µM | 77.6 µM | –
12 | O=C1/C(=N\[O-])C(S(=O)(=O)[O-])=Cc2cc(S(=O)(=O)[O-])cc(O)c21.O=C1/C(=N\[O-])C(S(=O)(=O)[O-])=Cc2cc(S(=O)(=O)[O-])cc(O)c21.[Cu+2] | > 200 µM | 123 µM | –
13 | C=C1C(=O)OC2C1CC1OC2C(C)CCC/C(C)=C\CCC1(C)O (stereo not given) | > 525 µM | 17 µM | –
14 | C/C(=N/NC(=O)C[N+](C)(C)C)C(CN(C)C)C(=O)Nc1ccccc1 (stereo not given) | > 13.5 µM | > 13.5 µM | –
15 | Cc1cccc2c1CCC21OC(=O)c2c1cc(F)c1ccccc21 (stereo not given) | > 39.8 µM | 14.8 µM | –
16 | C=CN(c1ccccc1)c1nc(=O)[nH]c(=O)[nH]1 | > 200 µM | > 200 µM | –
17 | CC(C)[Si]([Se]c1ccccc1)(C(C)C)C(C)C | > 21.9 µM | > 21.9 µM | –
18 | O=C(Oc1c(Br)cc(Br)cc1C(=O)Oc1ccccc1)C(=O)Oc1c(Br)cc(Br)cc1C(=O)Oc1ccccc1 | > 200 µM | 30.9 µM | –
19 | COC1OC(COC(C)=O)C(OC(C)=O)C(OC(C)=O)C1NC(=O)N(CCCl)N=O (stereo not given) | > 288 µM | 91.2 µM and > 209 µM | –
20 | O=S(O)c1cc(Cl)c(O)c(Cl)c1 | – | – | inactive
21 | O=[N+]([O-])c1ccc(Sc2c3ccccc3nc3ccccc23)cc1 | > 4.37 µM | > 4.37 µM | –
22 | CC1=NC(=O)CNN1C1=NNC2(C(=O)N1)c1ccccc1-c1ccccc12 | > 100 µM | > 100 µM | –

Row | SMILES | EC50 | IC50 | outcome
23 | O=C(CCCN1CCC(Nc2ccc(F)cc2)(c2nnnn2C2CCCCC2)CC1)c1ccc(F)cc1 | > 200 µM | 16.6 µM | –
24 | N#CC(C#N)=C/C=C/c1ccccc1[N+](=O)[O-] | > 200 µM | 3.47 µM | –
25 | CN(C)c1nncc2[nH]cnc12 | > 200 µM | > 200 µM | –
26 | CCN(CCCl)CCCCNc1c2ccccc2nc2ccc(OC)cc12 | – | – | inactive
27 | CCNC(=S)N/N=C/c1cc([N+](=O)[O-])ccc1O | > 200 µM | 5.01 µM | –
28 | CC1(C)Nc2cc3c(cc2-n2cccc21)oc1ccccc13 | > 200 µM | 9.12 µM | –
29 | Cc1cc2c(cc1Cl)SC(C(=O)c1ccc(Cl)cc1)=NS2(=O)=O | – | – | inactive
30 | Nc1ccc2c(c1)Oc1c(F)c(F)cc3c(=O)c(C(=O)O)cn-2c13 | > 11.5 µM | 11.2 µM | –
31 | O=C(O)c1cc(OS(=O)(=O)O)c(OS(=O)(=O)O)c(OS(=O)(=O)O)c1 | > 200 µM | 11.2 µM | –
32 | COC(=O)[C@@]1(C)CCC[C@]2(C)C3(O)C(C)C(=O)O[C@H](c4ccoc4)C3C(OC(C)=O)C21O (stereo not given in full) | > 200 µM | > 200 µM | –
33 | Cc1ccc(-n2cc(-c3ccc(Cl)cc3)c3c(=N)n(N)cnc32)cc1 | > 100 µM | 13.5 µM | –
34 | Cc1cccc(C)c1NC(=O)C1C(=O)N(c2c(C)cccc2C)C(=O)/C1=N\NC(N)=S (stereo not given) | > 22.9 µM | > 22.9 µM | –
35 | COC(=O)c1ccc(CCC2=CC(=O)C(Br)=CC2=O)cc1 | > 200 µM | 9.33 µM | –
36 | Cc1cc2[n-]c1/C=c1\[n-]/c(c(CCC(=O)O)c1C)=C\c1[n-]c(c(C)c1CCC(=O)O)/C=c1/cc(C)/c([n-]1)=C/2.[Co] | > 24 µM | > 24 µM | –
37 | COC(=O)NNC(c1ccc(Cl)cc1)c1ccc(Cl)cc1 | > 200 µM | 30.9 µM | –
38 | C#CCNC(=O)NC(CCCNC(=O)OCc1ccccc1)C(=O)OCc1ccccc1 (stereo not given) | > 83.2 µM | > 83.2 µM | –
39 | O=C1c2ccccc2C(=O)N1n1c(Cc2ccc(Cl)cc2)n[nH]c1=O | > 200 µM | > 200 µM | –
40 | COC(=O)c1cc(C(=CCCO)c2cc(Cl)c(OC)c(C(=O)OC)c2)cc(Cl)c1OC | > 200 µM | 24.5 µM | –
41 | Cc1cn2c(n1)Nc1sc3c(c1C2)CCCC3 | > 200 µM | 30.2 µM | –
42 | C[C@@H]1CC[C@]2(C)C3(C)CC[C@]2(OC3=O)[C@@]12CC(c1ccoc1)OC2=O (stereo not given in full) | > 200 µM | 33.9 µM | –
43 | C=CCn1c(N)c(C#N)c(C#N)c1-c1ccccc1 | > 200 µM | > 200 µM | –
44 | COc1ccc(/C=C2/C(=O)N(C(=O)c3ccc(Cl)cc3)N=C2C)cc1OC | > 35.5 µM | > 35.5 µM | –

Row | SMILES | EC50 | IC50 | outcome
45 | O=C1C=C/C(=C/[C@H]2SSC=C[C@]23C=CC(=O)C3)C1 | > 200 µM | 2.63 µM | –
46 | Cc1cc(=O)[nH]c2cc(N(C)C)ccc12 | > 67.6 µM | > 67.6 µM | –
47 | COc1ccc(C2=NN(C(=O)COc3ccc(Cl)cc3)C(O)(c3ccc(Cl)cc3)C2)cc1 (stereo not given) | > 11 µM | > 11 µM | –
48 | O=C(O[C@H]1[C@@H]2C=CO[C@@H](OC3OC(CO)C(O)C(O)C3O)[C@@H]2[C@@]2(CO)O[C@@H]12)c1ccc(O)c(O)c1 (stereo not given in full) | – | – | inactive
49 | COc1ccc(C2C3CCCC(C3=O)C(c3ccc(OC)cc3)N2N=O)cc1 (stereo not given) | > 19.1 µM | > 19.1 µM | –
50 | CC(C)CCC[C@@H](C)[C@H]1CCC2[C@@H]3CC[C@H]4C[C@@H](CCC=C(c5cc(Cl)c(OCc6ccc(-c7ccc(C(=O)O)cc7)cc6)c(C(=O)O)c5)c5cc(Cl)c(OCc6ccc(-c7ccc(C(=O)O)cc7)cc6)c(C(=O)O)c5)CC[C@]4(C)[C@H]3CC[C@@]21C (stereo not given in full) | > 200 µM | 170 µM | –
51 | O=C(/C=C/c1ccc(O)c(O)c1)O[C@H]1CCCC[C@@H]1OC(=O)/C=C/c1ccc(O)c(O)c1 | > 100 µM | 5.75 µM | –
52 | CC1=Nc2ccccc2NC2(C1)C(C1COC(C)(C)O1)OC1OC(C)(C)OC12 (stereo not given) | – | – | inactive
53 | N#Cc1c(N)c(C(=O)Nc2ccc(S(N)(=O)=O)cc2)n2c1CCC2 | > 200 µM | > 200 µM | –
54 | O=C1c2ccccc2-c2nnsc21 | > 191 µM | 141 µM | –
55 | CCC(C)C(NC(=O)C1CCCN1C(=O)OCc1ccccc1)C(=O)O (stereo not drawn) (Cbz-Pro-Ile-OH; configuration not given here) | > 692 µM | > 692 µM | –
56 | Cc1ccc(N=C2N=C(N3CC(C)OC(C)C3)c3ccccc32)cc1 (stereo not given) | > 107 µM | 26.3 µM | –
57 | CN(C)C1(C#N)CCC2(CC1)OCCO2 | – | – | inactive
58 | CN1C(CC(O)c2ccccc2)CCCC1CC(O)c1ccccc1 (stereo not given) | > 200 µM | > 200 µM | –
59 | CCc1cc(CCC(=O)Nc2ccccc2[N+](=O)[O-])[nH]c(=S)n1 | > 759 µM | > 759 µM | –
60 | CC1=CCCC(C)C1(C)CC/C(C)=C/CC/C(=C/CS(=O)(=O)CCN=C(N)N)CO (stereo not given) | > 81.3 µM | 15.1 µM | –
61 | CCOC(=O)Cc1cc(=O)oc2cc(O)ccc12 | > 200 µM | 166 µM | –
62 | C=CCc1cc(-c2cc(CC=C)c(O)c(CN(CC)CC)c2)cc(CN(CC)CC)c1O | > 200 µM | 93.3 µM | –
63 | O=C(O)c1nc2cc(Cl)ccc2[nH]c1=O | > 200 µM | > 200 µM | –
64 | OCC1OC(n2cnc(C3=NCC(O)CN3)n2)C(O)C1O (stereo not given) | – | – | inactive
65 | Cn1ccnc1Cn1cc(-c2cccc(-c3cn[nH]c3)c2)cn1 | – | – | inactive
66 | O=C(O)c1c2c(cc3c(=O)c4ccccc4[nH]c13)CCCC2 | > 617 µM | 85.1 µM | –

Row | SMILES | EC50 | IC50 | outcome
67 | S=c1cc(-c2ccc3c(c2)OCO3)s[nH]1 | > 200 µM | 162 µM | –
68 | NC(Cc1c2ccccc2cc2ccccc12)C(=O)O (stereo not given) | > 200 µM | 102 µM | –
69 | [N-]=[N+]=NS(=O)(=O)c1cccc([N+](=O)[O-])c1 | – | – | inactive
70 | COc1ccc2c(c1)OCC1=C2Oc2ccccc2C1 | > 200 µM | 26.9 µM | –
71 | Cc1cc(=O)[nH]c(NNC(C#N)c2ccc(O)cc2)n1 (stereo not given) | > 182 µM | > 182 µM | –
72 | Cc1cnc2sn(-c3ccc(Br)cc3)c(=O)c2c1 | > 200 µM | 11.5 µM | –
73 | O=P(c1ccccc1)(c1ccccc1)C(NCc1ccccc1)c1ccc(F)cc1 (stereo not given) | > 200 µM | 12.9 µM | –
74 | O=S(=O)(c1ccccc1)N1CCC1c1ccccc1 (stereo not given) | – | – | inactive
75 | CC1=C(c2cc(C(=O)Nc3nccs3)nc(NC#N)n2)Sc2ccccc2N1 | > 45.7 µM | > 45.7 µM | –
76 | CC(C)N=C(N)NC#N | > 1480 µM | > 1480 µM | –
77 | CCCNC(=O)c1sc(SC)nc1NC(=O)c1ccc(OC)cc1 | > 200 µM | > 200 µM | –
78 | CCCCC(C(=O)O)C1=CCCCC1 (stereo not given) | – | – | inactive
79 | CCCCCCCCCCNP(=S)(NCCCCCCCCCC)c1ccccc1 | – | – | inactive
80 | O=C(O)C1C(c2ccccc2)C=CC(c2ccccc2)C1C(=O)O (stereo not given) | – | – | inactive
81 | O=[N+]([O-])c1ccc(C2=CSC3=NCCN23)cc1 | – | – | inactive
82 | Nc1nc(-c2ccc(Cl)cc2)nc2sc3c(c12)CCCCC3 | > 30.2 µM | > 30.2 µM | –
83 | c1ccc2c(c1)NC1=C(CSCC1)c1nncn1-2 | > 200 µM | > 200 µM | –
84 | Clc1cccc(-c2sc(-c3ccsc3)cc2Cc2ccsc2)c1 | – | – | inactive
85 | CCCCCc1c2nc(c(CCCCC)c3ccc([nH]3)c(CCCCC)c3ccc([nH]3)c(CCCCC)c3nc1C=C3)C=C2 | > 200 µM | > 200 µM | –
86 | CC(=O)Oc1cc(OC(C)=O)c2c(c1)OC(c1ccc(OC(C)=O)c(OC(C)=O)c1)CC2=O (stereo not given) | > 57.5 µM | > 57.5 µM | –
